Structures are written as SMILES.

This assay relates to Wnt pathway (TCF-dependent transcription in HEK293 luciferase reporter cell line with ER-DSH construct). Nature of the assay: Cellular assay for Wnt pathway activity (luciferase reporter). The following applies: Homo sapiens; Wnt pathway inhibition, HEK293 luciferase reporter cells (ER-DSH, TCF promoter), 24 hours incubation, estrogen-induced. Type of assay: cell-based. As for the experimental part:
1. Cellular Assay for Wnt Pathway Activity
Compounds were tested for their Wnt pathway inhibitory activities using a luciferase reporter cell based assay. A HEK293 luciferase reporter cell line was used which contained an Estrogen Receptor-Dishevelled (ER-DSH) construct and a T-Cell Factor (TCF) dependent gene promoter luciferase construct.
Compounds, in concentrations from 30 μM down to 1 nM, were incubated for 24 hours on the cells, which were induced for TCF-dependent transcription by the addition of estrogen (10). Luciferase activities were determined using the ONE GLO Luciferase Assay System (Promega) and the ENVISION microplate reader (Perkin Elmer). For analysis, the obtained data were normalized against the untreated vehicle control and fitted for determination of the IC50 values using the Assay Explorer software (Accelrys).
The molecule `COc1ccc(Oc2cncc(N(C)CCN(C)C(=O)Cc3ccc(F)cc3)n2)cc1` [Compound 63, 2-(4-Fluoro-phenyl)-N-(2-{[6-(4-methoxy-phenoxy)-pyrazin-2-yl]-methyl-amino}-ethyl)-N-methyl-acetamide] yielded an IC50 of 1 to 10 µM.
Regarding `COc1ccc(Oc2cncc(N(C)CCN(C)C(=O)CCC(C)C)n2)cc1` [Compound 64, 4-Methyl-pentanoic acid (2-{[6-(4-methoxy-phenoxy)-pyrazin-2-yl]-methyl-amino}-ethyl)-methyl-amide], the IC50 was 1 to 10 µM.
`CSc1ccc(Oc2cncc(N(C)CCN(C)C(C)=O)n2)cc1` [Compound 65, N-Methyl-N-(2-{methyl-[6-(4-methyl-sulfanyl-phenoxy)-pyrazin-2-yl]-amino}-ethyl)-acetamide] had an IC50 of less than 0.2 µM.
In the case of `CC(=O)N(C)CCNc1cncc(Oc2ccc(F)cc2)n1` [Compound 66, N-{2-[6-(4-Fluoro-phenoxy)-pyrazin-2-ylamino]-ethyl}-N-methyl-acetamide], the IC50 lay in the range of 1 to 10 µM.
For the molecule `COc1ccc(Oc2cncc(NCCN(C)C(C)=O)n2)cc1` [Compound 67, N-{2-[6-(4-Methoxy-phenoxy)-pyrazin-2-ylamino]-ethyl}-N-methyl-acetamide], the IC50 fell in the range of 1 to 10 µM.
As to `CCNC(=O)N(C)CCN(C)c1cncc(Oc2ccc(OC)cc2)n1` [Compound 69, 3-Ethyl-1-(2-{[6-(4-methoxy-phenoxy)-pyrazin-2-yl]-methyl-amino}-ethyl)-1-methyl-urea], the IC50 was in the range of 1 to 10 µM.
Molecule `CCN(CCNc1cncc(Oc2cccc(F)c2)n1)C(C)=O` [Compound 70, N-Ethyl-N-{2-[6-(3-fluoro-phenoxy)-pyrazin-2-ylamino]-ethyl}-acetamide] had a 50% inhibitory concentration (IC50) of 1 to 10 µM.
As for `CCN(CCNc1cncc(Oc2ccc(OC)cc2)n1)C(C)=O` [Compound 71, N-Ethyl-N-{2-[6-(4-methoxy-phenoxy)-pyrazin-2-ylamino]-ethyl}-acetamide], the IC50 lay in the range of 0.2 to 1 µM.
`CCN(CCNc1cncc(Oc2ccc(F)cc2)n1)C(C)=O` [Compound 72, N-Ethyl-N-{2-[6-(4-fluoro-phenoxy)-pyrazin-2-ylamino]-ethyl}-acetamide] displayed an IC50 of 1 to 10 µM.
Consider `CCN(CC1CCCN(c2cncc(Oc3ccc(OC)cc3)n2)C1)C(C)=O` (stereo not shown) [Compound 73, N-Ethyl-N-{1-[6-(4-methoxy-phenoxy)-pyrazin-2-yl]-piperidin-3-ylmethyl}-acetamide], for which the IC50 was in the range of 1 to 10 µM.
Under `CN(CCN(C)c1cncc(Oc2ccc3ncccc3c2)n1)C(=O)C(F)(F)F` [Compound 74, 2,2,2-Trifluoro-N-methyl-N-(2-{methyl-[6-(quinolin-6-yloxy)-pyrazin-2-yl]-amino}-ethyl)-acetamide] stands 1 to 10 µM; under `CSc1cccc(Oc2cncc(N(C)CCN(C)C(=O)C(F)F)n2)c1` [Compound 75, 2,2-Difluoro-N-methyl-N-(2-{methyl-[6-(3-methyl-sulfanyl-phenoxy)-pyrazin-2-yl]-amino}-ethyl)-acetamide], 1 to 10 µM.
Under `CSc1cccc(Oc2cncc(N(C)CCN(C)C(=O)CF)n2)c1` [Compound 76, 2-Fluoro-N-methyl-N-(2-{methyl-[6-(3-methyl-sulfanyl-phenoxy)-pyrazin-2-yl]-amino}-ethyl)-acetamide] stands 0.2 to 1 µM; under `CCN(CCN(C)c1cncc(Oc2ccc(OC)cc2)n1)C(C)=O` [Compound 77, N-Ethyl-N-(2-{[6-(4-methoxy-phenoxy)-pyrazin-2-yl]-methyl-amino}-ethyl)-acetamide], less than 0.2 µM; under `COC(=O)N(C)CCN(C)c1cncc(Oc2ccc(OC)cc2)n1` [Compound 78, (2-{[6-(4-Methoxy-phenoxy)-pyrazin-2-yl]-methyl-amino}-ethyl)-methyl-carbamic acid methyl ester], 1 to 10 µM.
`COc1ccc(Oc2cncc(N(C)CCN(C)C(=O)C(F)(F)F)n2)cc1` [Compound 79, 2,2,2-Trifluoro-N-(2-{[6-(4-methoxy-phenoxy)-pyrazin-2-yl]-methyl-amino}-ethyl)-N-methyl-acetamide] yielded a concentration for half-maximal inhibition (IC50) of 1 to 10 µM.
For the molecule `COc1ccc(Oc2cncc(N(C)CCCN(C)C(C)=O)n2)cc1` [Compound 80, N-(3-{[6-(4-Methoxy-phenoxy)-pyrazin-2-yl]-methyl-amino}-propyl)-N-methyl-acetamide], the IC50 is 1 to 10 µM.
`COc1ccc(Oc2cncc(N(C)CCCN(C)C(=O)C(F)(F)F)n2)cc1` [Compound 81, 2,2,2-Trifluoro-N-(3-{[6-(4-methoxy-phenoxy)-pyrazin-2-yl]-methyl-amino}-propyl)-N-methyl-acetamide]: the IC50 lay within 1 to 10 µM.
As for `CCN(CCN(C)c1cncc(Oc2cccc(F)c2)n1)C(C)=O` [Compound 82, N-Ethyl-N-(2-{[6-(3-fluoro-phenoxy)-pyrazin-2-yl]-methyl-amino}-ethyl)-acetamide], the IC50 was in the range of 0.2 to 1 µM.
For `CC(=O)N(C)CCCN(C)c1cncc(Oc2ccc(F)cc2)n1` [Compound 83, N-(3-{[6-(4-Fluoro-phenoxy)-pyrazin-2-yl]-methyl-amino}-propyl)-N-methyl-acetamide], the IC50 was 1 to 10 µM.
Turning to `CN(CCCN(C)c1cncc(Oc2ccc(F)cc2)n1)C(=O)C(F)(F)F` [Compound 84, 2,2,2-Trifluoro-N-(3-{[6-(4-fluoro-phenoxy)-pyrazin-2-yl]-methyl-amino}-propyl)-N-methyl-acetamide], the IC50 fell in the range of 1 to 10 µM.
In turn, `CC(=O)N(C)CCN(C)c1cncc(Oc2ccc(C(C)(C)C)cc2)n1` [Compound 85, N-(2-{[6-(4-tert-Butyl-phenoxy)-pyrazin-2-yl]-methyl-amino}-ethyl)-N-methyl-acetamide] had an IC50 of less than 0.2 µM.
Under `CC(=O)N(C)CCN(C)c1cncc(Oc2ccc(N3CCCCC3=O)cc2)n1` [Compound 86, N-Methyl-N-[2-(methyl-{6-[4-(2-oxo-piperidin-1-yl)-phenoxy]-pyrazin-2-yl}-amino)-ethyl]-acetamide] stands 0.2 to 1 µM; under `CC(=O)N(C)CCN(C)c1cncc(Oc2ccc(N3CCN(C(C)=O)CC3)cc2)n1` [Compound 87, N-[2-({6-[4-(4-Acetyl-piperazin-1-yl)-phenoxy]-pyrazin-2-yl}-methyl-amino)-ethyl]-N-methyl-acetamide], 0.2 to 1 µM.
`CC(=O)N(C)CCN(C)c1cncc(Oc2ccc(Cl)c(C(F)(F)F)c2)n1` [Compound 88, N-(2-{[6-(4-Chloro-3-trifluoro-methyl-phenoxy)-pyrazin-2-yl]-methyl-amino}-ethyl)-N-methyl-acetamide] displayed an IC50 of 1 to 10 µM.
Under `CC(=O)N(C)CCN(C)c1cncc(Oc2ccc(Cl)c(Cl)c2)n1` [Compound 89, N-(2-{[6-(3,4-Dichloro-phenoxy)-pyrazin-2-yl]-methyl-amino}-ethyl)-N-methyl-acetamide] stands 0.2 to 1 µM; under `CCN(CCN(C)c1cncc(Oc2ccc(F)cc2)n1)C(C)=O` [Compound 90, N-Ethyl-N-(2-{[6-(4-fluoro-phenoxy)-pyrazin-2-yl]-methyl-amino}-ethyl)-acetamide], less than 0.2 µM; under `CC(=O)N(C)CCN(C)c1cncc(Oc2ccc3c(c2)OCO3)n1` [Compound 91, N-(2-{[6-(Benzo[1,3]dioxol-5-yloxy)-pyrazin-2-yl]-methyl-amino}-ethyl)-N-methyl-acetamide], 0.2 to 1 µM.
`CC(=O)N(C)CCN(C)c1cncc(Oc2ccc3c(c2)CCC3)n1` [Compound 92, N-(2-{[6-(Indan-5-yloxy)-pyrazin-2-yl]-methyl-amino}-ethyl)-N-methyl-acetamide] had an IC50 of less than 0.2 µM.
For the molecule `CC(=O)N(C)CCN(C)c1cncc(Oc2ccc(-c3ccc(C)cn3)cc2)n1` [Compound 93, N-Methyl-N-[2-(methyl-{6-[4-(5-methyl-pyridin-2-yl)-phenoxy]-pyrazin-2-yl}-amino)-ethyl]-acetamide], the IC50 is less than 0.2 µM.
As for `CC(=O)Nc1ccc(Oc2cncc(N(C)CCN(C)C(C)=O)n2)cc1` [Compound 94, N-(2-{[6-(4-Acetylamino-phenoxy)-pyrazin-2-yl]-methyl-amino}-ethyl)-N-methyl-acetamide], the IC50 was in the range of 0.2 to 1 µM.
Under `CC(=O)N(C)CCN(C)c1cncc(Oc2ccc(C(C)C)cc2)n1` [Compound 95, N-(2-{[6-(4-Isopropyl-phenoxy)-pyrazin-2-yl]-methyl-amino}-ethyl)-N-methyl-acetamide] stands less than 0.2 µM; under `CC(=O)N(C)CCN(C)c1cncc(Oc2ccc(Cl)cc2Cl)n1` [Compound 96, N-(2-{[6-(2,4-Dichloro-phenoxy)-pyrazin-2-yl]-methyl-amino}-ethyl)-N-methyl-acetamide], 0.2 to 1 µM; under `CCc1ccc(Oc2cncc(N(C)CCN(C)C(C)=O)n2)cc1` [Compound 97, N-(2-{[6-(4-Ethyl-phenoxy)-pyrazin-2-yl]-methyl-amino}-ethyl)-N-methyl-acetamide], less than 0.2 µM.
`CC(=O)N(C)CCN(C)c1cncc(Oc2ccc(-c3ccccc3)cc2)n1` [Compound 98, N-(2-{[6-(Biphenyl-4-yloxy)-pyrazin-2-yl]-methyl-amino}-ethyl)-N-methyl-acetamide] registered an IC50 of less than 0.2 µM.
Under `CC(=O)N(C)CCN(C)c1cncc(Oc2ccc(C3CCCCC3)cc2)n1` [Compound 99, N-(2-{[6-(4-Cyclohexyl-phenoxy)-pyrazin-2-yl]-methyl-amino}-ethyl)-N-methyl-acetamide] stands 1 to 10 µM; under `CC(=O)N(C)CCN(C)c1cncc(Oc2ccc(S(C)(=O)=O)cc2)n1` [Compound 100, N-(2-{[6-(4-Methane-sulfonyl-phenoxy)-pyrazin-2-yl]-methyl-amino}-ethyl)-N-methyl-acetamide], 0.2 to 1 µM.

(Values after patent US9493444B2 (Merck Patent GmbH, priority 2012, dated 2016).)
